Experimental data from the CheMixHub ionic liquid set.

Assay: xn = mol fraction of the nth substance listed

CCCC[n+]1ccn(C)c1.F[P-](F)(F)(F)(F)F + CCC(C)=O
298.15 K, 101.3 kPa
Conditions	viscosity [mPa·s]
x2 = 0.3016	43.3
x2 = 0.4024	23.55
x2 = 0.4485	18.18
x2 = 0.6517	5.15

CC#N + CCCCCCCC(=O)[O-].c1c[nH+]c[nH]1
101.3 kPa, x1 = 1
Conditions	viscosity [mPa·s]
298.15 K	0.333
323.15 K	0.223

CC(CC(C)(C)C)CP(=O)([O-])CC(C)CC(C)(C)C.CCCCCCCCCCCCCC[P+](CCCCCC)(CCCCCC)CCCCCC + CCCCCCCCCCCC
101 kPa
Conditions	viscosity [mPa·s]
298.15 K, x1 = 0.4684	82
303.15 K, x1 = 1	757
308.15 K, x1 = 0.4684	56.3
318.15 K, x1 = 0.6647	103
338.15 K, x1 = 0.6647	50.4
343.15 K, x1 = 0.6647	43.4
343.15 K, x1 = 1	111

CC(CC(C)(C)C)CP(=O)([O-])CC(C)CC(C)(C)C.CCCCCCCCCCCCCC[P+](CCCCCC)(CCCCCC)CCCCCC + CCCCCCCCCCCC + O
Conditions	viscosity [mPa·s]
303.15 K, 100 kPa, x2 = 0, x3 = 0.8861	119.5

CCCCCCCCCCCCCCCCCC[n+]1ccn(C)c1.O=S(=O)([N-]S(=O)(=O)C(F)(F)F)C(F)(F)F + CCCCCCCCCCCCCCCCn1cc[n+](C)c1.O=S(=O)([N-]S(=O)(=O)C(F)(F)F)C(F)(F)F
Conditions	viscosity [mPa·s]
323 K, 101 kPa, x2 = 0.621	89.5

CCCCCCCCCCCCCCCCCC[n+]1ccn(C)c1.O=S(=O)([N-]S(=O)(=O)C(F)(F)F)C(F)(F)F + CCCCCCCCCCCCCC[n+]1ccn(C)c1.O=S(=O)([N-]S(=O)(=O)C(F)(F)F)C(F)(F)F
Conditions	viscosity [mPa·s]
323 K, 101 kPa, x2 = 0.7675	62.9

CCCCCCCCCCCCCCCC[n+]1ccn(C)c1.[Cl-] + CCCCCCCCCCCC[N+](C)(C)C.[Br-] + O
100 kPa, frequency 0.002 MHz
Conditions	electrical conductivity [S/m]
303.15 K, x1 = 5.946e-05, x2 = 1.478e-05	0.025
303.15 K, x1 = 7.207e-05, x2 = 1.802e-05	0.0286
303.15 K, x1 = 9.712e-05, x2 = 2.433e-05	0.0355
313.15 K, x1 = 6.13e-06, x2 = 2.433e-05	0.0202
313.15 K, x1 = 7.75e-06, x2 = 1.802e-05	0.0184
313.15 K, x1 = 2.09e-05, x2 = 2.34e-06	0.0146
323.15 K, x1 = 9.19e-06, x2 = 2.126e-05	0.0259

CCCC[n+]1ccn(C)c1.O=S(=O)([N-]S(=O)(=O)C(F)(F)F)C(F)(F)F + CCCCCCCCCO
Conditions	viscosity [mPa·s]
298 K, 100 kPa, x1 = 1	49.7

CCCC[n+]1ccn(C)c1.O=S(=O)([N-]S(=O)(=O)C(F)(F)F)C(F)(F)F + CCCCCCCCO
Conditions	viscosity [mPa·s]
298 K, 100 kPa, x1 = 1	49.7

CCCCCCO + CCCCCCCC[n+]1ccc2ccccc2c1.O=S(=O)([N-]S(=O)(=O)C(F)(F)F)C(F)(F)F
Conditions	viscosity [mPa·s]
328.15 K, 101 kPa, x1 = 1	1.97

CN(C)C=O + CCCCCCCC[n+]1ccn(C)c1.F[P-](F)(F)(F)(F)F
101 kPa, x2 = 0
Conditions	viscosity [mPa·s]
293.15 K	0.881
303.15 K	0.771
313.15 K	0.668
323.15 K	0.605
333.15 K	0.553
353.15 K	0.479
363.15 K	0.447

CN(C)C=O + CCCCCCCCn1cc[n+](C)c1.N#C[S-]
101 kPa, x2 = 0
Conditions	viscosity [mPa·s]
293.15 K	0.881
303.15 K	0.771
313.15 K	0.668
323.15 K	0.605
333.15 K	0.553
353.15 K	0.479
363.15 K	0.447

CN1CCCC1=O + CCCCCCCCn1cc[n+](C)c1.N#C[S-]
101 kPa, x2 = 0
Conditions	viscosity [mPa·s]
288.15 K	2.127
298.15 K	1.785
308.15 K	1.543
318.15 K	1.306

CN(C)C=O + CCCCCCCCn1cc[n+](C)c1.O=S(=O)([N-]S(=O)(=O)C(F)(F)F)C(F)(F)F
101 kPa, x2 = 0
Conditions	viscosity [mPa·s]
293.15 K	0.881
303.15 K	0.771
313.15 K	0.668
323.15 K	0.605
333.15 K	0.553
353.15 K	0.479
363.15 K	0.447

CCCCCCCCCC[n+]1ccn(C)c1.[Br-] + CCCCCCCCn1cc[n+](C)c1.[Br-] + O
298.15 K, 101 kPa
Conditions	electrical conductivity [S/m]
x2 = 0.001457, x1 = 0.0002702	0.7
x2 = 0.002534, x1 = 0.0004683	1.01
x2 = 0.003323, x1 = 0.0006123	1.2
x2 = 0.003985, x1 = 0.0007203	1.33
x2 = 0.00477, x1 = 0.0008642	1.45
x2 = 0.005466, x1 = 0.0009901	1.55

CN1CCCC1=O + CCCCCCCCn1cc[n+](C)c1.[Cl-]
100 kPa, x1 = 1
Conditions	viscosity [mPa·s]
293.15 K	1.853
318.15 K	1.259

CCCC[n+]1ccn(C)c1.O=S(=O)([N-]S(=O)(=O)C(F)(F)F)C(F)(F)F + CCCCCCCO
Conditions	viscosity [mPa·s]
298 K, 100 kPa, x1 = 1	49.7

CCCC[n+]1ccn(C)c1.O=S(=O)([N-]S(=O)(=O)C(F)(F)F)C(F)(F)F + CCCCCCO
Conditions	viscosity [mPa·s]
298 K, 100 kPa, x1 = 1	49.7

CC#N + CCCCCC[P+](CCCC)(CCCC)CCCC.F[B-](F)(F)F
100 kPa, x2 = 0
Conditions	viscosity [mPa·s]
293.15 K	0.354
298.15 K	0.338
303.15 K	0.324
308.15 K	0.31
313.15 K	0.298
318.15 K	0.286

CN1CCCC1=O + CCCCCC[n+]1ccn(C)c1.N#C[S-]
101 kPa, x2 = 0
Conditions	viscosity [mPa·s]
288.15 K	2.133
298.15 K	1.791
308.15 K	1.548
318.15 K	1.312

COCCOCCOCCOCCOC + CCCCCC[n+]1ccn(C)c1.O=S(=O)([N-]S(=O)(=O)C(F)(F)F)C(F)(F)F
Conditions	viscosity [mPa·s]
288.15 K, 100 kPa, x1 = 0.099	96

CCCCCC[n+]1ccn(C)c1.F[P-](F)(F)(F)(F)F + CCCCCC[n+]1ccn(C)c1.[Cl-]
101 kPa
Conditions	electrical conductivity [S/m]	viscosity [mPa·s]
303 K, x2 = 0.6	0.0103	–
303 K, x2 = 0.8	0.00536	–
303.15 K, x2 = 0.2	–	960
303.15 K, x2 = 0.4	–	1853
308 K, x2 = 0.4	0.0299	–
308 K, x2 = 0.8	0.00862	–
308.15 K, x2 = 0	–	360
313 K, x2 = 0	0.13	–
313 K, x2 = 0.4	0.0424	–
318 K, x2 = 0.6	0.0337	–
318.15 K, x2 = 0.4	–	600
323.15 K, x2 = 0.6	–	710
328 K, x2 = 0	0.26	–
328 K, x2 = 0.8	0.0419	–
328.15 K, x2 = 0.2	–	205

CN(C)C=O + CCCCCC[n+]1ccn(C)c1.[Cl-]
101 kPa, x1 = 1
Conditions	viscosity [mPa·s]
288.15 K	0.94
298.15 K	0.82

CCCC[n+]1ccn(C)c1.O=S(=O)([N-]S(=O)(=O)C(F)(F)F)C(F)(F)F + CCCCCO
Conditions	viscosity [mPa·s]
298 K, 100 kPa, x1 = 1	49.7

CCCCC[P+](CC)(CC)CC.O=S(=O)([N-]S(=O)(=O)C(F)(F)F)C(F)(F)F + CCCCC[N+](CC)(CC)CC.O=S(=O)([N-]S(=O)(=O)C(F)(F)F)C(F)(F)F
101.3 kPa, x2 = 0
Conditions	viscosity [mPa·s]
283.15 K	203
323.15 K	30.5

CCCC[n+]1ccn(C)c1.O=S(=O)([N-]S(=O)(=O)C(F)(F)F)C(F)(F)F + CCCCO
298 K
Conditions	electrical conductivity [S/m]	viscosity [mPa·s]
100 kPa, x1 = 0.05	–	3.52
100 kPa, x1 = 0.1	–	4.728
100 kPa, x1 = 0.1998	–	6.745
100 kPa, x1 = 0.2996	–	8.98
100 kPa, x1 = 0.399	–	11.9
100 kPa, x1 = 0.4991	–	15.1
100 kPa, x1 = 0.5995	–	19.41
100 kPa, x1 = 0.6984	–	24.48
100 kPa, x1 = 0.7971	–	31.76
100 kPa, x1 = 0.9005	–	39.89
100 kPa, x1 = 1	–	49.7
101 kPa, x2 = 0	–	50.4
101 kPa, x2 = 0.2936	0.561	–
101 kPa, x2 = 0.317	0.613	–
101 kPa, x2 = 0.5053	0.668	–
101 kPa, x2 = 0.6833	0.653	–
101 kPa, x2 = 0.8349	0.418	–
101 kPa, x2 = 0.8623	0.368	–

CCCC[n+]1ccn(C)c1.O=S(=O)([N-]S(=O)(=O)C(F)(F)F)C(F)(F)F + CCCCOC(C)=O
298.15 K, 100 kPa, x2 = 0
Conditions	electrical conductivity [S/m]	viscosity [mPa·s]
–	0.39	50.2

FC(F)(F)c1ccccc1 + CCCC[N+]1(C)CCCC1.FC(F)(F)C(F)(F)[P-](F)(F)(F)(C(F)(F)C(F)(F)F)C(F)(F)C(F)(F)F
101 kPa
Conditions	electrical conductivity [S/m]	viscosity [mPa·s]
298.1 K, x2 = 0	–	0.53
298.1 K, x2 = 0.059	0.368	–
298.1 K, x2 = 0.099	0.536	–
298.1 K, x2 = 0.144	0.663	–
298.1 K, x2 = 0.198	–	3.67
298.1 K, x2 = 0.203	0.762	–
298.1 K, x2 = 0.27	–	5.93
298.1 K, x2 = 0.274	0.696	–
298.1 K, x2 = 0.371	0.619	–
298.1 K, x2 = 0.495	–	21.7
298.1 K, x2 = 0.5	0.461	–
298.1 K, x2 = 0.69	0.311	55.1
298.1 K, x2 = 0.858	0.172	111.8
303 K, x2 = 0.063	0.394	–
303 K, x2 = 0.099	0.576	–
303 K, x2 = 0.144	0.711	–
303 K, x2 = 0.2	0.82	–
303 K, x2 = 0.274	0.772	–
303 K, x2 = 0.366	–	8.56
303 K, x2 = 0.374	0.681	–
303 K, x2 = 0.497	0.553	–
303 K, x2 = 0.498	–	17.83
303 K, x2 = 0.694	0.369	–
303 K, x2 = 0.852	–	84.4
303 K, x2 = 0.858	0.212	–
308.1 K, x2 = 0.063	0.415	–
308.1 K, x2 = 0.102	0.612	–
308.1 K, x2 = 0.141	0.766	–
308.1 K, x2 = 0.201	–	2.93
308.1 K, x2 = 0.206	0.886	–
308.1 K, x2 = 0.281	0.842	–
308.1 K, x2 = 0.366	–	7.87
308.1 K, x2 = 0.378	0.761	–
308.1 K, x2 = 0.5	0.611	–
308.1 K, x2 = 0.69	–	39.4
308.1 K, x2 = 0.694	0.435	–
308.1 K, x2 = 0.858	0.259	–
313 K, x2 = 0.063	0.434	–
313 K, x2 = 0.099	0.645	–
313 K, x2 = 0.141	–	1.77
313 K, x2 = 0.142	0.817	–
313 K, x2 = 0.203	0.951	–
313 K, x2 = 0.278	0.911	–
313 K, x2 = 0.371	0.834	–
313 K, x2 = 0.498	–	12.73
313 K, x2 = 0.5	0.688	–
313 K, x2 = 0.687	–	32.3
313 K, x2 = 0.697	0.504	–
313 K, x2 = 0.859	0.31	–
318.1 K, x2 = 0.063	0.456	–
318.1 K, x2 = 0.099	0.678	–
318.1 K, x2 = 0.142	0.86	–
318.1 K, x2 = 0.2	1.02	–
318.1 K, x2 = 0.275	0.988	–
318.1 K, x2 = 0.369	–	6.11
318.1 K, x2 = 0.372	0.914	–
318.1 K, x2 = 0.504	0.757	–
318.1 K, x2 = 0.687	–	26.6
318.1 K, x2 = 0.694	0.577	–
318.1 K, x2 = 0.855	0.361	–
323 K, x2 = 0	–	0.46
323 K, x2 = 0.026	0.204	–
323 K, x2 = 0.095	–	1.09
323 K, x2 = 0.099	0.715	–
323 K, x2 = 0.142	0.908	–
323 K, x2 = 0.201	1.08	–
323 K, x2 = 0.278	1.07	–
323 K, x2 = 0.372	0.991	–
323 K, x2 = 0.498	–	9.89
323 K, x2 = 0.501	0.834	–
323 K, x2 = 0.694	0.658	–
323 K, x2 = 0.856	–	37.4
323 K, x2 = 0.862	0.416	–
